Nine compounds from patent publication US10004701B2, “Methods and compositions for treating infection” (UNIVERSITY OF ROCHESTER, priority 2012, dated 2018) can be followed below.

Common to all, as to assay: AK assay 384-well format, Prestwick library screening
Experiment [1] concerns A. baumannii strain 98-37-09. Type of experiment: cell-based, Acinetobacter baumannii. As to conditions: 50 μM final drug concentration; for fold induction at 50 µM: Acinetobacter baumannii, 983709, 3 h.
Experiment [2] has as its system S. aureus strain USA300-0114. It counts as cell-based, Staphylococcus aureus. As to conditions: 50 μM final drug concentration; for fold induction at 50 µM: Staphylococcus aureus, USA300, 3 h.
For another experiment, the system named is E. coli. Type of experiment: cell-based, Escherichia coli. As to conditions: 50 μM final drug concentration; for fold induction at 50 µM: Escherichia coli, 3 h.
Another experiment has as its system E. faecium. Type of experiment: cell-based, Enterococcus faecium. The settings on record: 50 μM final drug concentration; for fold induction at 50 µM: Enterococcus faecium, 3 h.
The next experiment concerns K. pneumoniae. It counts as cell-based, Klebsiella pneumoniae. As to conditions: 50 μM final drug concentration; for fold induction at 50 µM: Klebsiella pneumoniae, 3 h.
The test system of a further experiment is P. aeruginosa. Type of experiment: cell-based, Pseudomonas aeruginosa. As to conditions: 50 μM final drug concentration; for fold induction at 50 µM: Pseudomonas aeruginosa, 3 h.
For the next experiment, the system named is E. cloacae. It counts as cell-based, Enterobacter cloacae. As to conditions: 50 μM final drug concentration; for fold induction at 50 µM: Enterobacter cloacae, 3 h.
[3] abbreviates: planktonic A. baumannii, 384-well, cutoff for positive-scoring molecules 3-fold increase, read-out: AK-based Prestwick Library Screening Results: A. baumannii (increase in extracellular AK activity).
Where [4] appears, read: planktonic S. aureus, 384-well, cutoff for positive-scoring molecules 3-fold increase, read-out: AK-based Prestwick Library Screening Results: S. aureus (increase in extracellular AK activity).
Setting [5] is: planktonic E. coli, 384-well, cutoff for positive-scoring molecules 3-fold increase, read-out: AK-based Prestwick Library Screening Results: E. coli (increase in extracellular AK activity).
[6] abbreviates: planktonic E. faecium, 384-well, cutoff for positive-scoring molecules 3-fold increase, read-out: AK-based Prestwick Library Screening Results: E. faecium (increase in extracellular AK activity).
Setting [7] is: planktonic K. pneumoniae, 384-well, cutoff for positive-scoring molecules 3-fold increase, read-out: AK-based Prestwick Library Screening Results: K. pneumoniae (increase in extracellular AK activity).
The mark [8] stands for this setting: planktonic P. aeruginosa, 384-well, cutoff for positive-scoring molecules 3-fold increase, read-out: AK-based Prestwick Library Screening Results: P. aeruginosa (increase in extracellular AK activity).
Where [9] appears, read: planktonic E. cloacae, 384-well, cutoff for positive-scoring molecules 3-fold increase, read-out: AK-based Prestwick Library Screening Results: E. cloacae (increase in extracellular AK activity).
Setting [10] is: cutoff for positive-scoring molecules 3-fold increase.

Where a name gives a salt, the structure may show the parent alone. Read-outs that look alike come from different tables or passages of the source.

In the case of `CN(C)[C@@H]1C(O)=C(C(=O)NCN2CCCC2)C(=O)[C@@]2(O)C(O)=C3C(=O)c4c(O)cccc4[C@@](C)(O)[C@H]3C[C@@H]12` [Rolitetracycline], the fold induction at 50 µM worked out at 1.2 in experiment [1] (cutoff for positive-scoring molecules 3-fold increase, read-out: AK-based Prestwick Library Screening Results, A. baumannii (fold increase in extracellular AK activity)); 1.1 in experiment [2] (cutoff for positive-scoring molecules 3-fold increase, read-out: AK-based Prestwick Library Screening Results, S. aureus (fold increase in extracellular AK activity)); 1.1 with E. coli (cutoff for positive-scoring molecules 3-fold increase, read-out: AK-based Prestwick Library Screening Results, E. coli (fold increase in extracellular AK activity)); 1 with E. faecium (cutoff for positive-scoring molecules 3-fold increase, read-out: AK-based Prestwick Library Screening Results, E. faecium (fold increase in extracellular AK activity)); 1 with K. pneumoniae (cutoff for positive-scoring molecules 3-fold increase, read-out: AK-based Prestwick Library Screening Results, K. pneumoniae (fold increase in extracellular AK activity)); 1.1 in the experiment on P. aeruginosa (cutoff for positive-scoring molecules 3-fold increase, read-out: AK-based Prestwick Library Screening Results, P. aeruginosa (fold increase in extracellular AK activity)). Also, the fold induction at 50 µM in the experiment with E. cloacae (cutoff for positive-scoring molecules 3-fold increase, read-out: AK-based Prestwick Library Screening Results, E. cloacae (fold increase in extracellular AK activity)) came to 1.7.

On to `CCCC(=O)Nc1ccc(OCC(O)CNC(C)C)c(C(C)=O)c1` (stereo not drawn) [Acebutolol hydrochloride], for which the fold induction at 50 µM in experiment [1] (setting [3]) was 1.3; in experiment [2] (setting [4]) it was 1.1; in the experiment with E. coli (setting [5]), 1.3; in the experiment with E. faecium (setting [6]) it was 1.1; with K. pneumoniae (setting [7]) it was 0.9; in the experiment with P. aeruginosa (setting [8]), 1.1. The fold induction at 50 µM in the experiment with E. cloacae (setting [9]) stood at 1.2.

For the compound `O=C(NCCO[N+](=O)[O-])c1cccnc1` [Nicorandil], the fold induction at 50 µM was determined as 0.8 in experiment [1] (384-well format, cutoff for positive-scoring molecules 3-fold increase, read-out: AK-based Prestwick Library Screening Results, A. baumannii (increase in extracellular AK activity)); 0.6 in experiment [2] (384-well format, cutoff for positive-scoring molecules 3-fold increase, read-out: AK-based Prestwick Library Screening Results, S. aureus (increase in extracellular AK activity)); 0.9 in the experiment on E. coli (384-well format, cutoff for positive-scoring molecules 3-fold increase, read-out: AK-based Prestwick Library Screening Results, E. coli (increase in extracellular AK activity)); 0.9 in the experiment on E. faecium (384-well format, cutoff for positive-scoring molecules 3-fold increase, read-out: AK-based Prestwick Library Screening Results, E. faecium (increase in extracellular AK activity)); 0.8 in the experiment on K. pneumoniae (384-well format, cutoff for positive-scoring molecules 3-fold increase, read-out: AK-based Prestwick Library Screening Results, K. pneumoniae (increase in extracellular AK activity)); 0.7 in the experiment on P. aeruginosa (384-well format, cutoff for positive-scoring molecules 3-fold increase, read-out: AK-based Prestwick Library Screening Results, P. aeruginosa (increase in extracellular AK activity)). For the same compound, the fold induction at 50 µM in the experiment on E. cloacae (384-well format, cutoff for positive-scoring molecules 3-fold increase, read-out: AK-based Prestwick Library Screening Results, E. cloacae (increase in extracellular AK activity)) worked out at 0.9.

On to `COc1cnc(NS(=O)(=O)c2ccc(N)cc2)nc1` [Sulfameter], for which the fold induction at 50 µM in experiment [1] (planktonic, […], read-out: AK-based Prestwick Library Screening Results, A. baumannii (fold increase in extracellular AK activity)) amounted to 2.3; in experiment [2] (planktonic, […], read-out: AK-based Prestwick Library Screening Results, S. aureus (fold increase in extracellular AK activity)), 1.2; with E. coli (planktonic, […], read-out: AK-based Prestwick Library Screening Results, E. coli (fold increase in extracellular AK activity)) it was 1.3; in the experiment on E. faecium (planktonic, […], read-out: AK-based Prestwick Library Screening Results, E. faecium (fold increase in extracellular AK activity)), 1; in the experiment on K. pneumoniae (planktonic, […], read-out: AK-based Prestwick Library Screening Results, K. pneumoniae (fold increase in extracellular AK activity)) it was 1; in the experiment on P. aeruginosa (planktonic, […], read-out: AK-based Prestwick Library Screening Results, P. aeruginosa (fold increase in extracellular AK activity)), 1.1. In addition, the fold induction at 50 µM in the experiment on E. cloacae (planktonic, […], read-out: AK-based Prestwick Library Screening Results, E. cloacae (fold increase in extracellular AK activity)) was 1.2.

As to `COc1ccc2c(c1)c(CC(=O)OCC(=O)O)c(C)n2C(=O)c1ccc(Cl)cc1` [Acemetacin], the fold induction at 50 µM amounted to 1.1 in experiment [1] (setting [3]); 1.1 in experiment [2] (setting [4]); 1.2 in the experiment with E. coli (setting [5]); 1 in the experiment with E. faecium (setting [6]); 0.9 in the experiment on K. pneumoniae (setting [7]); 1.1 in the experiment on P. aeruginosa (setting [8]). In the experiment on E. cloacae (setting [9]), the fold induction at 50 µM was 1.3.

Take `CCOc1ccc(NC(C)=O)cc1` [Phenacetin]: the fold induction at 50 µM was 1.1 in experiment [1] (planktonic, cutoff for positive 3-fold increase, read-out: AK-based Prestwick Library Screening Results, A. baumannii (fold increase in extracellular AK activity)); 0.8 in experiment [2] (planktonic, cutoff for positive 3-fold increase, read-out: AK-based Prestwick Library Screening Results, S. aureus (fold increase in extracellular AK activity)); 1.2 in the experiment with E. coli (planktonic, cutoff for positive 3-fold increase, read-out: AK-based Prestwick Library Screening Results, E. coli (fold increase in extracellular AK activity)); 0.9 in the experiment with E. faecium (planktonic, cutoff for positive 3-fold increase, read-out: AK-based Prestwick Library Screening Results, E. faecium (fold increase in extracellular AK activity)); 0.9 in the experiment on K. pneumoniae (planktonic, cutoff for positive 3-fold increase, read-out: AK-based Prestwick Library Screening Results, K. pneumoniae (fold increase in extracellular AK activity)); 0.9 with P. aeruginosa (planktonic, cutoff for positive 3-fold increase, read-out: AK-based Prestwick Library Screening Results, P. aeruginosa (fold increase in extracellular AK activity)). In addition, in the experiment on E. cloacae (planktonic, cutoff for positive 3-fold increase, read-out: AK-based Prestwick Library Screening Results, E. cloacae (fold increase in extracellular AK activity)), the fold induction at 50 µM stood at 1.4.

In the case of S(−)Eticlopride hydrochloride, the “AK-based Prestwick Library Screening Results, A. baumannii (fold increase in extracellular AK activity)” value in experiment [1] (setting [10]) came to 1.0. In addition, the “AK-based Prestwick Library Screening Results, S. aureus (fold increase in extracellular AK activity)” value in experiment [2] (setting [10]) was 1.6. Moreover, the “AK-based Prestwick Library Screening Results, E. coli (fold increase in extracellular AK activity)” value in the experiment with E. coli (setting [10]) is recorded as 0.9. Besides, the “AK-based Prestwick Library Screening Results, E. faecium (fold increase in extracellular AK activity)” value with E. faecium (setting [10]) was 1.0. The “AK-based Prestwick Library Screening Results, K. pneumoniae (fold increase in extracellular AK activity)” value in the experiment on K. pneumoniae (setting [10]) is 1.1. Further, the “AK-based Prestwick Library Screening Results, P. aeruginosa (fold increase in extracellular AK activity)” value with P. aeruginosa (setting [10]) turned out to be 1.3. For the same compound, the “AK-based Prestwick Library Screening Results, E. cloacae (fold increase in extracellular AK activity)” value in the experiment on E. cloacae (setting [10]) came out at 1.8.

As to `COc1ccc2c(c1)N(C[C@H](C)CN(C)C)c1ccccc1S2.O=C(O)/C=C\C(=O)O` [Methotrimeprazine maleat salt], in experiment [1] (setting [10]), the “AK-based Prestwick Library Screening Results, A. baumannii (fold increase in extracellular AK activity)” value was determined as 1.1. For the same compound, the “AK-based Prestwick Library Screening Results, S. aureus (fold increase in extracellular AK activity)” value in experiment [2] (setting [10]) came out at 1.2. In the experiment with E. coli (setting [10]), the “AK-based Prestwick Library Screening Results, E. coli (fold increase in extracellular AK activity)” value is given as 1.3. Moreover, the “AK-based Prestwick Library Screening Results, E. faecium (fold increase in extracellular AK activity)” value in the experiment with E. faecium (setting [10]) came out at 1.0. In the experiment with K. pneumoniae (setting [10]), the “AK-based Prestwick Library Screening Results, K. pneumoniae (fold increase in extracellular AK activity)” value came to 1.0. The “AK-based Prestwick Library Screening Results, P. aeruginosa (fold increase in extracellular AK activity)” value with P. aeruginosa (setting [10]) worked out at 1.1. Further, in the experiment on E. cloacae (setting [10]), the “AK-based Prestwick Library Screening Results, E. cloacae (fold increase in extracellular AK activity)” value is given as 1.8.

As to `CN1[C@@H](C[C@@H](O)c2ccccc2)CCC[C@H]1C[C@H](O)c1ccccc1.Cl` [Lobelanidine hydrochloride], the “AK-based Prestwick Library Screening Results, A. baumannii (increase in extracellular AK activity)” value in experiment [1] (planktonic A. baumannii, cutoff for positive-scoring molecules 3-fold increase) was found to be 1.0. The “AK-based Prestwick Library Screening Results, S. aureus (increase in extracellular AK activity)” value in experiment [2] (planktonic S. aureus, cutoff for positive-scoring molecules 3-fold increase) stood at 0.6. In addition, the “AK-based Prestwick Library Screening Results, E. coli (increase in extracellular AK activity)” value in the experiment on E. coli (planktonic E. coli, […]) is given as 1.0. Also, the “AK-based Prestwick Library Screening Results, E. faecium (increase in extracellular AK activity)” value in the experiment on E. faecium (planktonic E. faecium, cutoff for positive-scoring molecules 3-fold increase) is listed as 0.9. Further, the “AK-based Prestwick Library Screening Results, K. pneumoniae (increase in extracellular AK activity)” value with K. pneumoniae (planktonic K. pneumoniae, cutoff for positive-scoring molecules 3-fold increase) is 0.8. Moreover, the “AK-based Prestwick Library Screening Results, P. aeruginosa (increase in extracellular AK activity)” value in the experiment with P. aeruginosa (planktonic P. aeruginosa, cutoff for positive-scoring molecules 3-fold increase) is 1.0. Further, the “AK-based Prestwick Library Screening Results, E. cloacae (increase in extracellular AK activity)” value with E. cloacae (planktonic E. cloacae, cutoff for positive-scoring molecules 3-fold increase) is listed as 1.0.
